Experimental findings from publication PMC4128046, “Effect of a toggle switch mutation in TM6 of the human adenosine A3 receptor on Gi protein-dependent signalling and Gi-independent receptor internalization” (British Journal of Pharmacology, 2014) are described below.

The target in experiment [1] is T1, human A3 receptor W243F mutant fused to YFP (A3 W243F-YFP) (Homo sapiens, UniProt P0DMS8, W243F).
T1 construct: Full length A3 W243F-YFP was excised and subcloned into a native pcDNA3.1 vector; expressed in transfected cells
T1 sequence (P0DMS8 1-318 W243F): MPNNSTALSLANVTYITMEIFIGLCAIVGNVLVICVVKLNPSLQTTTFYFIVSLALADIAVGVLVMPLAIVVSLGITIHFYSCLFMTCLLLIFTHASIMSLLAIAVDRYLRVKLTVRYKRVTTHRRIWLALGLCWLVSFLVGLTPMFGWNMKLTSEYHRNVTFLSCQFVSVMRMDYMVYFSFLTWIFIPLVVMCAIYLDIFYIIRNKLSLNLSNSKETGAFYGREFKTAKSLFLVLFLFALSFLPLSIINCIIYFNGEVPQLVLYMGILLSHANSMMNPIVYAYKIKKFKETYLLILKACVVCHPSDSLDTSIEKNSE
As to the kind of experiment: Automated imaging of receptor internalization (granularity analysis), A3 W243F-YFP. Type of experiment: cell-based. The settings on record: A3 W243F-YFP cells. The source says:
Immediately before experimentation, normal growth medium was replaced with serum-free medium. […] Medium was removed and cells were washed once in PBS. […] Images were obtained using an ImageXpress Ultra confocal plate reader (Molecular Devices, Sunnyvale, CA, USA). Four central images were obtained per well using a Plan Fluor 40x NA0.6 extra-long working distance objective. BiFC and YFP images were obtained by excitation with a 488 nm laser line with emission collected through a 525-550 nm band pass filter and H33342 images obtained by excitation with a 405 nm laser line and emission collected through a 447-460 nm band pass filter. Granularity analysis was performed on the resulting images using a granularity algorithm within MetaXpress software (Molecular Devices, Sunnyvale, CA, USA) and intensity above background was set for each individual experiment (Kilpatrick et al., [2010]). Areas of internalized receptors were identified by granularity analysis; granules were defined as having a diameter of between 7 and 15 μm and nuclei as having a diameter of between 6 and 9 μm, resulting in a measurement of the granule count per cell for each image. A basal and FSK control was included in each separate concentration-response CRE-SPAP gene transcription assay and cAMP accumulation assay to allow the responses in each cell line to be expressed as an inhibition of FSK-stimulated SPAP production. […] All data were fitted using non-linear regression in Prism 5 (GraphPad Software, San Diego, CA, USA). […] Statistical significance was determined by Student's unpaired t-test or by one-way ANOVA with Dunnett's post hoc analysis and P < 0.05 was considered statistically significant.

The target in another experiment is T2, A3 W243F-YFP (Homo sapiens, UniProt P0DMS8, W243F).
T2 construct: Full length A3 W243F-YFP was excised and subcloned into a native pcDNA3.1 vector; expressed in transfected cells
T2 sequence (P0DMS8 1-318 W243F): T1 sequence (P0DMS8 1-318 W243F)
As to the kind of experiment: CRE-SPAP gene transcription assay, A3 W243F-YFP. It counts as cell-based. The settings on record: A3 W243F-YFP cells. The method, then:
One day before analysis, normal growth medium was removed from the cells and replaced with serum-free medium (DMEM/F12 containing 2 mM L-glutamine). Where applicable, PTx (100 ng·mL^−1) was added at this stage. On the day of the assay, the medium was removed and replaced with fresh serum-free medium containing the required concentration of the agonist, and cells were incubated for 1 h at 37°C/5% CO2. After 1 h, the required concentration of forskolin (FSK) was added, and cells were incubated for a further 5 h at 37°C/5% CO2. Following the 5 h incubation, all medium was removed from the cells, 40 μL of fresh serum-free medium was added to each well and cells incubated for a further 1 h at 37°C/5% CO2. The plates were then incubated at 65°C for 30 min, to destroy any endogenous alkaline phosphatases. Plates were cooled to room temperature and 100 μL of 5 mM 4-nitrophenyl phosphate in diethanolamine-containing buffer [10% (v v^−1) diethanolamine, 280 mM NaCl, 500 μM MgCl2, pH 9.85] was added to each well; the plates were then incubated at 37°C for 25 min. The absorbance at 405 nm was measured using a Dynex MRX plate reader (Chelmsford, MA, USA).
A basal and FSK control was included in each separate concentration-response CRE-SPAP gene transcription assay and cAMP accumulation assay to allow the responses in each cell line to be expressed as an inhibition of FSK-stimulated SPAP production.

The structures appear in SMILES notation.

For `CCCCC#Cc1nc(NC)c2ncn([C@@H]3O[C@H](CO)[C@@H](O)[C@H]3O)c2n1` [HEMADO, 2-(1-hexynyl)-N-methyladenosine], the “effect of pretreatment on NECA-mediated internalization” value in experiment [1] (10 μM HEMADO 30 min before NECA 45 min) is on record as “virtually abolished”. Moreover, the “accumulation of internalized receptor after 2 h stimulation” value in experiment [1] (10 μM agonist, 2 h) was “no accumulation of internalized receptor could be detected”. Further, the “Maximum response (% inhibition of 10 μM FSK), CRE-SPAP assay” value on A3 W243F-YFP is reported as “No inhibition”. For the same compound, the “maximum inhibition of SPAP production in response to 3 μM FSK” value at A3 W243F-YFP (5 h stimulation, 3 μM FSK) is listed as “no significant decrease”.

Regarding `CCNC(=O)[C@H]1O[C@@H](n2cnc3c(N)ncnc32)[C@H](O)[C@@H]1O` [NECA, 5-(N-ethylcarboxamido)adenosine], the “Maximal internalization (%)” value in experiment [1] (percentage of internalization with 10 μM NECA in the cell line) was determined as 100%. Besides, the “agonist-mediated inhibition of SPAP production after PTx pre-incubation” value on A3 W243F-YFP (PTx 100 ng·mL−1 overnight, 3 μM FSK) is reported as “abolished”. Further, the “SPAP production in the absence of FSK (Gs coupling)” value at A3 W243F-YFP (no FSK, with or without PTx) was “no increase in SPAP production”. Moreover, the Emax on A3 W243F-YFP (read-out: Maximum response (% inhibition of 10 μM FSK), CRE-SPAP assay) was found to be 34.8 ± 6.7%.
